Test results as given in the supplement of paper PMC10307832.

Assays:
Assay in all cases: relative viability (nuclei count vs DMSO), 5 days (fraction); higher = more cells survive
[1] = compound: CC(C)C[C@@H](C(=O)N[C@H](C(=O)OC1CCCC1)c1ccccc1)[C@H](O)C(=O)NO [Tosedostat] + NC(=O)Nc1cc(-c2cccc(F)c2)sc1C(=O)N[C@H]1CCCNC1 [AZD7762] (partner 0.2 µM)
Procedure, shortened: (§1)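 Relative viability was taken as the ratio of nuclei in treated wells to nuclei in vehicle wells. Lung cancer cell lines in 1536-well plates received compounds by pin tool one day after seeding, either one drug alone or a fixed anchor-drug dose plus five library-drug doses (not always all listed) in √10 steps. Nuclei were counted on 4× images after 5 days of treatment, and values are medians of duplicate plates.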

[2] = compound: CC(C)C[C@@H](C(=O)N[C@H](C(=O)OC1CCCC1)c1ccccc1)[C@H](O)C(=O)NO [Tosedostat] + O=C(c1cc(Cc2n[nH]c(=O)c3ccccc23)ccc1F)N1CCN(C(=O)C2CC2)CC1 [Olaparib] (partner 8 µM)
Procedure, shortened: as §1

[3] = compound: CC1=NN=C(O1)C2=NN=C(C=C2)N3CCC(CC3)OC4=C(C=CC(=C4)F)Cl + COc1cc2c(Oc3ccc(NC(=O)C4(C(=O)Nc5ccc(F)cc5)CC4)cc3F)ccnc2cc1OCCCN1CCOCC1 [Foretinib] (partner 0.25 µM)
Procedure, shortened: as §1

[4] = compound: CC1=NN=C(O1)C2=NN=C(C=C2)N3CCC(CC3)OC4=C(C=CC(=C4)F)Cl + C[C@@H](Oc1cc(-c2cnn(C3CCNCC3)c2)cnc1N)c1c(Cl)ccc(F)c1Cl [Crizotinib] (partner 1 µM)
Procedure, shortened: as §1

Row | Cell Line | relative viability ([1]; first compound 0.02 µM) | relative viability ([1]; first compound 0.06325 µM) | relative viability ([1]; first compound 0.2 µM) | relative viability ([1]; first compound 0.6325 µM) | relative viability ([1]; first compound 2 µM) | relative viability ([2]; first compound 0.02 µM) | relative viability ([2]; first compound 0.06325 µM) | relative viability ([2]; first compound 0.2 µM) | relative viability ([2]; first compound 0.6325 µM) | relative viability ([2]; first compound 2 µM) | relative viability ([3]; first compound 0.253 µM) | relative viability ([3]; first compound 0.8 µM) | relative viability ([3]; first compound 2.53 µM) | relative viability ([3]; first compound 8 µM) | relative viability ([4]; first compound 0.253 µM) | relative viability ([4]; first compound 0.8 µM) | relative viability ([4]; first compound 2.53 µM) | relative viability ([4]; first compound 8 µM)
1 | HCC-78 | 0.355 | 0.771 | 0.65 | 0.738 | 0.791 | 0.683 | 0.796 | 0.766 | 0.754 | 0.75 | 0.465 | 0.51 | 0.467 | 0.516 | 0.294 | 0.297 | 0.288 | 0.311
2 | HCC-366 | 0.291 | 0.34 | 0.428 | 0.361 | 0.485 | 0.361 | 0.334 | 0.385 | 0.32 | 0.33 | 0.46 | 0.574 | 0.466 | 0.343 | 0.289 | 0.284 | 0.256 | 0.272
3 | HCC-827 | 0.201 | 0.257 | 0.347 | 0.176 | 0.178 | 0.543 | 0.526 | 0.602 | 0.317 | 0.506 | 0.381 | 0.239 | 0.353 | 0.318 | 0.331 | 0.224 | 0.326 | 0.308
4 | HOP-62 | 0.56 | 0.556 | 0.753 | 0.345 | 0.379 | 0.638 | 0.346 | 0.321 | 0.245 | 0.363 | 0.806 | 0.833 | 0.806 | 0.543 | 0.71 | – | 0.784 | 0.575
5 | LC-2-ad | 0.929 | 0.85 | 0.873 | 0.8 | 0.918 | 0.774 | 0.707 | 0.714 | 0.638 | 0.695 | 0.66 | 0.634 | 0.623 | 0.507 | 0.334 | 0.314 | 0.336 | 0.326
6 | LCLC-97TM1 | 0.291 | 0.209 | 0.164 | 0.197 | 0.195 | 0.335 | 0.436 | 0.309 | 0.236 | 0.251 | 0.481 | 0.439 | 0.433 | 0.381 | 0.262 | – | 0.442 | 0.327
7 | LCLC-103H | 0.886 | 0.713 | 0.69 | 0.77 | 0.852 | 0.763 | 0.773 | 0.777 | 0.816 | 0.772 | 0.579 | 0.596 | 0.494 | 0.582 | 0.819 | 0.746 | 0.723 | 0.746
8 | LK-2 | 0.459 | 0.475 | 0.381 | 0.354 | 0.617 | 0.615 | 0.798 | 0.583 | 0.592 | 0.437 | 1.11 | 1.05 | 1.45 | 1.5 | 0.216 | 0.246 | 0.24 | 0.259
9 | LOU-NH91 | 0.805 | 0.862 | 0.802 | 0.745 | 0.624 | 0.948 | 0.901 | 0.893 | 0.79 | 0.768 | 0.896 | 0.847 | 0.927 | 0.9 | – | 0.654 | 0.703 | 0.749
10 | LU99A | 0.369 | 0.333 | 0.374 | 0.293 | 0.297 | 0.278 | 0.216 | 0.211 | 0.171 | 0.19 | 0.826 | 0.868 | 0.836 | 0.742 | 0.571 | 0.604 | 0.655 | 0.552
11 | LXF-289 | 1.17 | 1.08 | 1.19 | 1.05 | 1.08 | 1.08 | 0.958 | 1.07 | 0.969 | 0.942 | 0.692 | 0.671 | 0.66 | 0.563 | 0.612 | 0.593 | 0.623 | 0.545
12 | NCI-H23 | 0.31 | 0.248 | 0.232 | 0.202 | 0.253 | 0.323 | 0.238 | 0.294 | 0.252 | 0.191 | 0.981 | – | 0.792 | 0.841 | 0.6 | – | 0.454 | 0.441
13 | NCI-H322M | 0.648 | 0.56 | 0.641 | 0.613 | 0.567 | 0.746 | 0.713 | 0.67 | 0.532 | 0.635 | 0.937 | 0.908 | 1.03 | 0.95 | 0.762 | 0.792 | 0.899 | 0.886
14 | NCI-H358 | 0.71 | 0.471 | 0.434 | 0.317 | 0.34 | 0.547 | 0.679 | 0.438 | 0.229 | 0.211 | 0.512 | 0.393 | 0.512 | 0.41 | 0.522 | 0.403 | 0.509 | 0.466
15 | NCI-H441 | 1.39 | 1.09 | 1.13 | 0.85 | 0.718 | 0.711 | 0.533 | 0.364 | 0.384 | 0.322 | 0.658 | 0.78 | 0.686 | 0.605 | 0.615 | 0.428 | 0.541 | 0.36
16 | NCI-H460 | 0.728 | 0.66 | 0.709 | 0.665 | 0.705 | 0.424 | 0.438 | 0.392 | 0.326 | 0.388 | 0.282 | 0.299 | 0.273 | 0.243 | 0.359 | 0.301 | 0.311 | 0.296
17 | NCI-H596 | 1.04 | 1.21 | 1.13 | 1.17 | 1.2 | 0.66 | 0.662 | 0.776 | 0.598 | 0.49 | 0.71 | 0.751 | 0.837 | 0.682 | – | 0.95 | 0.963 | 0.795
18 | NCI-H647 | 0.664 | 0.454 | 0.368 | 0.366 | 0.398 | 0.799 | 0.446 | 0.506 | 0.376 | 0.51 | 0.565 | 0.623 | 0.586 | 0.426 | 0.664 | 0.691 | 0.726 | 0.528
19 | NCI-H650 | 1.32 | 1.05 | 0.904 | 0.851 | 0.725 | 0.368 | 0.362 | 0.381 | 0.271 | 0.219 | 1.01 | 0.959 | 0.911 | 1.06 | 0.691 | 0.692 | 0.64 | 0.818
20 | NCI-H727 | 0.667 | 0.559 | 0.65 | 0.669 | 0.53 | 0.677 | 0.492 | 0.679 | 0.51 | 0.451 | 0.786 | 0.822 | 0.838 | 0.828 | 0.725 | 0.901 | 0.672 | 0.683
21 | NCI-H838 | 0.999 | 0.928 | 0.893 | 0.973 | 1 | 0.839 | 0.716 | 0.735 | 0.739 | 0.729 | 0.887 | 0.83 | 0.868 | 0.88 | 0.643 | 0.679 | 0.731 | 0.683
22 | NCI-H1355 | 0.698 | 0.703 | 0.72 | 0.606 | 0.621 | 0.731 | 0.662 | 0.649 | 0.587 | 0.607 | 0.723 | 0.802 | 0.895 | 0.845 | – | – | 0.985 | 0.959
23 | NCI-H1437 | 1.14 | 1.15 | 1.14 | 1.08 | 0.904 | 0.641 | 0.615 | 0.659 | 0.596 | 0.604 | 0.724 | 0.805 | 0.729 | 0.512 | 0.605 | 0.506 | 0.55 | 0.535
24 | NCI-H1651 | 0.458 | 0.486 | 0.588 | 0.439 | 0.384 | 0.201 | 0.203 | 0.168 | 0.156 | 0.141 | 0.819 | 0.619 | 0.689 | 0.848 | 0.753 | 0.659 | 0.656 | 0.669
25 | NCI-H1666 | 0.878 | 0.919 | 1.02 | 0.912 | 0.907 | 0.726 | 0.732 | 0.72 | 0.638 | 0.777 | 0.496 | 0.47 | 0.459 | 0.412 | 0.612 | 0.621 | 0.636 | 0.629
26 | NCI-H1703 | 0.122 | 0.133 | 0.138 | 0.122 | 0.0985 | 0.45 | 0.373 | 0.293 | 0.29 | 0.311 | – | 0.438 | 0.394 | 0.478 | 0.728 | 0.661 | 0.764 | 0.611
27 | NCI-H1734 | 0.614 | 0.535 | 0.504 | 0.411 | 0.466 | 0.651 | 0.505 | 0.577 | 0.431 | 0.536 | 0.861 | 0.857 | 0.769 | 0.699 | 0.652 | 0.688 | 0.62 | 0.626
28 | NCI-H1755 | 0.43 | 0.462 | 0.398 | 0.407 | 0.347 | 0.924 | 0.851 | 0.827 | 0.857 | 0.776 | 0.641 | 0.719 | 0.731 | 0.647 | 0.578 | 0.576 | 0.619 | 0.512
29 | NCI-H1915 | 0.685 | 0.681 | 0.785 | 0.612 | 0.54 | 0.281 | 0.234 | 0.244 | 0.203 | 0.236 | 0.685 | 0.532 | 0.531 | 0.402 | 0.445 | 0.312 | 0.311 | 0.253
30 | NCI-H1944 | 0.659 | 0.494 | 0.501 | 0.437 | 0.453 | 0.429 | 0.427 | 0.414 | 0.355 | 0.371 | 0.464 | 0.463 | 0.473 | 0.498 | 0.448 | 0.54 | 0.566 | 0.529
